Three molecules from patent US4476120A, “Thiolic derivatives of erythromycin having therapeutic activity, and pharmaceutical compositions containing them” (Sigma Tau Indistrie Farmaceutiche Riunites, p.A, priority 1982, dated 1984) can be followed below.

Converted amounts (≈) assume the structure as drawn. Bounds are passed on as bounds.

One series deals with Citrobacter SS 09. The format is cell-based. Particulars: Brain Heart Infusion, estolate and RV11-RV15 previously hydrolized, unit assumed.
A further series has as its system B. anthranis SS 08. The format is cell-based. The settings on record: Brain Heart Infusion, estolate and RV11-RV15 previously hydrolized, unit assumed.
Another series deals with H. pertussis SS 03. The format is cell-based. Particulars: Brain Heart Infusion, estolate and RV11-RV15 previously hydrolized, unit assumed.
Series [1] in a line: Hematic levels in the rat (absorption by oral route). Particulars: for absorption by oral route (in words): from in vivo antibacterial and pharmacodynamic tests.
The next series concerns B. anthranis SS 09. Type of series: cell-based. Particulars: B. anthranis SS 09 (14 bis); Brain Heart Infusion; estolate and RV11-RV15 previously hydrolized; unit assumed.
In another series the test system is Staph. albus SS 03. Type of series: cell-based. The settings on record: Brain Heart Infusion, estolate and RV11-RV15 previously hydrolized, unit assumed.
[2] abbreviates: 0.30 hours, 100 mg/kg as erythromycin, average, 100 mg/kg, 18 min.
[3] abbreviates: 1 hour, 100 mg/kg as erythromycin, average, 100 mg/kg, 60 min.
Setting [4] is: 4 hours, 100 mg/kg as erythromycin, average, 100 mg/kg, 240 min.
The mark [5] stands for this setting: 5 hours, 100 mg/kg as erythromycin, average, 100 mg/kg, 300 min.
Setting [6] is: 6 hours, 100 mg/kg as erythromycin, average, 100 mg/kg, 360 min.
Setting [7] is: 2 hours, 100 mg/kg as erythromycin, average, 100 mg/kg, 120 min.
The mark [8] stands for this setting: 3 hours, 100 mg/kg as erythromycin, average, 100 mg/kg, 180 min.

On to `CC[C@H]1OC(=O)[C@H](C)[C@@H](O[C@H]2C[C@@](C)(OC)[C@@H](O)[C@H](C)O2)[C@H](C)[C@@H](O[C@@H]2O[C@H](C)C[C@H](N(C)C)[C@H]2O)[C@](C)(O)C[C@@H](C)C(=O)[C@H](C)[C@@H](O)[C@]1(C)O` [RV01, erythromycin alpha-mercaptosuccinate], for which the minimal inhibitory concentration (MIC) was above 200 µg/mL in the series with Citrobacter SS 09; 0.4 µg/mL (≈ 0.545 µM) against B. anthranis SS 08; 0.4 µg/mL (≈ 0.545 µM) against H. pertussis SS 03; 0.4 µg/mL (≈ 0.545 µM) with B. anthranis SS 09; 0.1 µg/mL (≈ 0.136 µM) against Staph. albus SS 03. In addition, the “Hematic levels in the rat” value was 0.48 µg/mL in series [1] (setting [2]); 0.79 µg/mL in series [1] (setting [3]); 0.44 µg/mL in series [1] (setting [4]); 0.24 µg/mL in series [1] (setting [5]); 0.03 µg/mL in series [1] (setting [6]). The “absorption by oral route (in words)” value in series [1] was “poorly absorbed by oral route and in a rate like that of erythromycin base”. The molecule further came in with a concentration at 2 h in series [1] (rat, blood, po, 100 mg/kg, Hematic levels in the rat, 2 hours, 100 mg/kg as erythromycin, average) of 1180 ng/mL. Also, the concentration at 3 h in series [1] (rat, blood, po, 100 mg/kg, Hematic levels in the rat, 3 hours, 100 mg/kg as erythromycin, average) came to 770 ng/mL.

For `CC[C@H]1OC(=O)[C@H](C)[C@@H](O[C@H]2C[C@@](C)(OC)[C@@H](O)[C@H](C)O2)[C@H](C)[C@@H](O[C@@H]2O[C@H](C)C[C@H](N(C)C)[C@H]2O)[C@](C)(O)C[C@@H](C)C(=O)[C@H](C)[C@@H](O)[C@]1(C)O` [RV03, erythromycyn-thiazolidin-carboxylate], the MIC is above 200 µg/mL in the series with Citrobacter SS 09; 0.2 µg/mL (≈ 0.273 µM) with B. anthranis SS 08; 0.4 µg/mL (≈ 0.545 µM) against H. pertussis SS 03; 0.4 µg/mL (≈ 0.545 µM) with B. anthranis SS 09; 0.05 µg/mL (≈ 0.0681 µM) in the series with Staph. albus SS 03. Moreover, the “Hematic levels in the rat” value in series [1] (setting [2]) came to 0.58 µg/mL; in series [1] (setting [3]), 0.71 µg/mL; in series [1] (setting [7]), 1.30 µg/mL; in series [1] (setting [8]), 0.77 µg/mL; in series [1] (setting [4]), 0.59 µg/mL; in series [1] (setting [5]) it was 0.36 µg/mL. In addition, in series [1] (setting [6]), the “Hematic levels in the rat” value is 0.07 µg/mL. Also, in series [1], the “absorption by oral route (in words)” value is “poorly absorbed by oral route and in a rate like that of erythromycin base”.

In the case of `CC[C@H]1OC(=O)[C@H](C)[C@@H](O[C@H]2C[C@@](C)(OC)[C@@H](O)[C@H](C)O2)[C@H](C)[C@@H](O[C@@H]2O[C@H](C)C[C@H](N(C)C)[C@H]2O)[C@](C)(O)C[C@@H](C)C(=O)[C@H](C)[C@@H](O)[C@]1(C)O` [RV04, erythromycin-S-carboxymethylcysteinate], the MIC was above 200 µg/mL with Citrobacter SS 09; 0.4 µg/mL (≈ 0.545 µM) against B. anthranis SS 08; 0.8 µg/mL (≈ 1.09 µM) against H. pertussis SS 03; 0.2 µg/mL (≈ 0.273 µM) in the series with B. anthranis SS 09; 0.1 µg/mL (≈ 0.136 µM) with Staph. albus SS 03. For the same molecule, the “Hematic levels in the rat” value was 0.50 µg/mL in series [1] (setting [2]); 0.71 µg/mL in series [1] (setting [3]); 1.30 µg/mL in series [1] (setting [7]); 1.04 µg/mL in series [1] (setting [8]); 0.68 µg/mL in series [1] (setting [4]); 0.43 µg/mL in series [1] (setting [5]). Also, in series [1] (setting [6]), the “Hematic levels in the rat” value is 0.15 µg/mL. Further, the “absorption by oral route (in words)” value in series [1] is “poorly absorbed by oral route and in a rate like that of erythromycin base”.
